Source: ChEMBL document CHEMBL1926629, “Design, synthesis and insight into the structure-activity relationship of 1,3-disubstituted indazoles as novel HIF-1 inhibitors” (Bioorg Med Chem Lett, 2011)

Experiments:
[1] = Inhibition of hypoxia-induced HIF-1 transcriptional activity by luciferase reporter assay
[2] = molecular target: Hypoxia-inducible factor 1-alpha (Homo sapiens) (UniProt Q16665); experiment: Inhibition of hypoxia-induced HIF1alpha protein reduction in human Hep3B cells by Western blot analysis; format: cell-based; conditions: Hep 3B2
Sequence of Hypoxia-inducible factor 1-alpha (Homo sapiens) (Q16665 whole entry, looked up): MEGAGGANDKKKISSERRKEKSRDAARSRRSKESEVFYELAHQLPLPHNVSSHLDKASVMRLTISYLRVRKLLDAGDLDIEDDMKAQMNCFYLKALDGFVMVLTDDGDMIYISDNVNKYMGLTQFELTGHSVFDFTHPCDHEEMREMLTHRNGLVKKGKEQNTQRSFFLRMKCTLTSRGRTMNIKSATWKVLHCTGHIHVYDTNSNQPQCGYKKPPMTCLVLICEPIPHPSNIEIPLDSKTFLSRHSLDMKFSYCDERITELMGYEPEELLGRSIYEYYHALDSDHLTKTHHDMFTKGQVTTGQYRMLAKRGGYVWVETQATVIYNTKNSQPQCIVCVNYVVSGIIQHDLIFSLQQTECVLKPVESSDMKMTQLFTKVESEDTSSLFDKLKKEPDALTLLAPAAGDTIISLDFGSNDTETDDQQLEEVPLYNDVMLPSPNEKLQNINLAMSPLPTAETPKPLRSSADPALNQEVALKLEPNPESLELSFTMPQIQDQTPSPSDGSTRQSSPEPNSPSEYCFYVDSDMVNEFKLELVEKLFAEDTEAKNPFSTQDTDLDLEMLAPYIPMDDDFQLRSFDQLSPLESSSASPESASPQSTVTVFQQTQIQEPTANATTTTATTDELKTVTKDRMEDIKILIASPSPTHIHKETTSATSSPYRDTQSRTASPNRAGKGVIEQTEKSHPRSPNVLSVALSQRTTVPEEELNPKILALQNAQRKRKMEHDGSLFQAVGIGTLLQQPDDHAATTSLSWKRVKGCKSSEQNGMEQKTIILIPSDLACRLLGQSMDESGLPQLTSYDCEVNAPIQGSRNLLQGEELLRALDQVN

SMILES | IC50 [1] [µM] | inhibition [2]
OCc1ccc(-c2[nH]nc3ccccc23)o1 | 5 | 
Cn1nc(-c2cc(CO)no2)c2ccccc21 | > 30 | 
OCc1cc(-c2nn(Cc3ccccc3)c3ccccc23)on1 | 23.9 | 
OCc1coc(-c2nn(Cc3ccccc3)c3ccccc23)n1 | > 30 | 
Cn1nc(-c2ccc(CO)o2)c2ccccc21 | 8.9 | 
O=S(=O)(c1ccccc1)n1nc(-c2ccc(CO)o2)c2ccccc21 | 1.3 | 
Cn1nc(-c2nc(CO)co2)c2ccccc21 | > 30 | 
CNCc1ccc(-c2nn(C)c3ccccc23)o1 | 7.7 | 
Cn1nc(-c2ncc(CO)o2)c2ccccc21 | > 30 | 
NC(=O)c1ccc(-c2nn(Cc3ccccc3)c3ccccc23)o1 | 11.9 | 
OCC1CN=C(c2nn(Cc3ccccc3)c3ccccc23)O1 (stereo not drawn) | > 30 | 
Cn1nc(-c2ccc(CN3CCCCC3)o2)c2ccccc21 | 2 | 
[N-]=[N+]=NCc1ccc(-c2nn(Cc3ccccc3)c3ccccc23)o1 | > 30 | 
Cn1nc(-c2ncc(CO)s2)c2ccccc21 | > 30 | 
CN(C)Cc1ccc(-c2nn(C)c3ccccc23)o1 | 8.5 | 
CC(=O)OCc1ccc(-c2nn(Cc3ccccc3)c3ccccc23)o1 | 2.3 | 
CC(=O)NCc1ccc(-c2nn(C)c3ccccc23)o1 | 13.4 | 
CC(C)(C)C(=O)OCc1ccc(-c2nn(Cc3ccccc3)c3ccccc23)o1 | 0.89 | 
CC(=O)OCc1ccc(-c2nn(C)c3ccccc23)o1 | 16.9 | 
OCc1ccc(-c2nn(Cc3ccccc3)c3ccccc23)o1 | 1.2 | 
OCc1cnc(-c2nn(Cc3ccccc3)c3ccccc23)s1 | > 30 | 
OCc1cnc(-c2nn(Cc3ccccc3)c3ccccc23)o1 | > 30 | 
Cn1nc(-c2ccc(CN3CCOCC3)o2)c2ccccc21 | 1.9 | 
CC(C)C(=O)OCc1ccc(-c2nn(Cc3ccccc3)c3ccccc23)o1 | 0.74 | Dose-dependent effect
COC(=O)c1ccc(-c2nn(Cc3ccccc3)c3ccccc23)o1 | 0.9 | 
Cn1nc(-c2ccc(CN)o2)c2ccccc21 | > 30 | 
Cn1nc(-c2ccc(CN=[N+]=[N-])o2)c2ccccc21 | > 30 | 
